Assay results taken from ChEMBL document CHEMBL4138146, “A Schmidt rearrangement-mediated synthesis of novel tetrahydro-benzo[1,4]diazepin-5-ones as potential anticancer and antiprotozoal agents” (Eur J Med Chem, 2017).

What was measured:
Format in all cases: functional
[1] = test system: HCT-116; test: Growth inhibition of human HCT116 cells assessed as cell growth at 10 uM incubated for 48 hrs by sulforhodamine B assay relative to control; details: HCT-116, 48 h, read-out: Activity
[2] = test system: SNB-75; test: Growth inhibition of human SNB75 cells assessed as cell growth at 10 uM incubated for 48 hrs by sulforhodamine B assay relative to control; details: SNB-75, 48 h, read-out: Activity
[3] = test system: SN12C; test: Growth inhibition of human SN12C cells assessed as cell growth at 10 uM incubated for 48 hrs by sulforhodamine B assay relative to control; details: read-out: Activity
[4] = test system: NCI-H460; test: Growth inhibition of human NCI-H460 cells assessed as cell growth at 10 uM incubated for 48 hrs by sulforhodamine B assay relative to control; details: NCI-H460, 48 h, read-out: Activity
[5] = test system: CAKI-1; test: Growth inhibition of human Caki1 cells assessed as cell growth at 10 uM incubated for 48 hrs by sulforhodamine B assay relative to control; details: CAKI-1, 48 h, read-out: Activity
[6] = test system: HCC 2998; test: Growth inhibition of human HCC2998 cells assessed as cell growth at 10 uM incubated for 48 hrs by sulforhodamine B assay relative to control; details: HCC 2998, 48 h, read-out: Activity
[7] = test system: SW-620; test: Growth inhibition of human SW620 cells assessed as cell growth at 10 uM incubated for 48 hrs by sulforhodamine B assay relative to control; details: SW-620, 48 h, read-out: Activity
[8] = test system: NCI-H522; test: Growth inhibition of human NCI-H522 cells assessed as cell growth at 10 uM incubated for 48 hrs by sulforhodamine B assay relative to control; details: NCI-H522, 48 h, read-out: Activity
[9] = test system: LOX IMVI; test: Growth inhibition of human LOXIMVI cells assessed as cell growth at 10 uM incubated for 48 hrs by sulforhodamine B assay relative to control; details: read-out: Activity
[10] = test system: RPMI-8226; test: Growth inhibition of human RPMI8226 cells assessed as cell growth at 10 uM incubated for 48 hrs by sulforhodamine B assay relative to control; details: RPMI-8226, 48 h, read-out: Activity
[11] = test system: HOP-92; test: Growth inhibition of human HOP92 cells assessed as cell growth at 10 uM incubated for 48 hrs by sulforhodamine B assay relative to control; details: HOP-92, 48 h, read-out: Activity
[12] = test system: KM12; test: Growth inhibition of human KM12 cells assessed as cell growth at 10 uM incubated for 48 hrs by sulforhodamine B assay relative to control; details: KM12, 48 h, read-out: Activity
[13] = test system: 786-0; test: Growth inhibition of human 786-0 cells assessed as cell growth at 10 uM incubated for 48 hrs by sulforhodamine B assay relative to control; details: 786-0, 48 h, read-out: Activity
[14] = test system: COLO 205; test: Growth inhibition of human COLO205 cells assessed as cell growth at 10 uM incubated for 48 hrs by sulforhodamine B assay relative to control; details: COLO 205, 48 h, read-out: Activity
[15] = test system: ACHN; test: Growth inhibition of human ACHN cells assessed as cell growth at 10 uM incubated for 48 hrs by sulforhodamine B assay relative to control; details: read-out: Activity
[16] = test system: BT-549; test: Growth inhibition of human BT549 cells assessed as cell growth at 10 uM incubated for 48 hrs by sulforhodamine B assay relative to control; details: BT-549, 48 h, read-out: Activity
[17] = test system: Hs-578T; test: Growth inhibition of human Hs 578T cells assessed as cell growth at 10 uM incubated for 48 hrs by sulforhodamine B assay relative to control; details: read-out: Activity
[18] = test system: SF-268; test: Growth inhibition of human SF268 cells assessed as cell growth at 10 uM incubated for 48 hrs by sulforhodamine B assay relative to control; details: SF-268, 48 h, read-out: Activity
[19] = test system: NCI-H226; test: Growth inhibition of human NCI-H226 cells assessed as cell growth at 10 uM incubated for 48 hrs by sulforhodamine B assay relative to control; details: NCI-H226, 48 h, read-out: Activity
[20] = test system: U-251; test: Growth inhibition of human U251 cells assessed as cell growth at 10 uM incubated for 48 hrs by sulforhodamine B assay relative to control; details: U-251, 48 h, read-out: Activity
[21] = test system: RXF 393; test: Growth inhibition of human RXF393 cells assessed as cell growth at 10 uM incubated for 48 hrs by sulforhodamine B assay relative to control; details: RXF 393, 48 h, read-out: Activity
[22] = test system: CCRF-CEM; test: Growth inhibition of human CCRF-CEM cells assessed as cell growth at 10 uM incubated for 48 hrs by sulforhodamine B assay relative to control; details: read-out: Activity
[23] = test system: DU-145; test: Growth inhibition of human DU145 cells assessed as cell growth at 10 uM incubated for 48 hrs by sulforhodamine B assay relative to control; details: DU-145, 48 h, read-out: Activity
[24] = test system: OVCAR-5; test: Growth inhibition of human OVCAR5 cells assessed as cell growth at 10 uM incubated for 48 hrs by sulforhodamine B assay relative to control; details: OVCAR-5, 48 h, read-out: Activity
[25] = test system: HT-29; test: Growth inhibition of human HT-29 cells assessed as cell growth at 10 uM incubated for 48 hrs by sulforhodamine B assay relative to control; details: HT-29, 48 h, read-out: Activity
[26] = test system: NCI/ADR-RES; test: Growth inhibition of human NCI/ADR-RES cells assessed as cell growth at 10 uM incubated for 48 hrs by sulforhodamine B assay relative to control; details: read-out: Activity
[27] = test system: NCI-H23; test: Growth inhibition of human NCI-H23 cells assessed as cell growth at 10 uM incubated for 48 hrs by sulforhodamine B assay relative to control; details: NCI-H23, 48 h, read-out: Activity
[28] = test system: SK-MEL-5; test: Growth inhibition of human SK-MEL-5 cells assessed as cell growth at 10 uM incubated for 48 hrs by sulforhodamine B assay relative to control; details: SK-MEL-5, 48 h, read-out: Activity
[29] = test system: HOP-62; test: Growth inhibition of human HOP62 cells assessed as cell growth at 10 uM incubated for 48 hrs by sulforhodamine B assay relative to control; details: HOP-62, 48 h, read-out: Activity
[30] = test system: A498; test: Growth inhibition of human A498 cells assessed as cell growth at 10 uM incubated for 48 hrs by sulforhodamine B assay relative to control; details: A498, 48 h, read-out: Activity
[31] = test system: NCI-H322M; test: Growth inhibition of human NCI-H322M cells assessed as cell growth at 10 uM incubated for 48 hrs by sulforhodamine B assay relative to control; details: read-out: Activity
[32] = test system: OVCAR-8; test: Growth inhibition of human OVCAR8 cells assessed as cell growth at 10 uM incubated for 48 hrs by sulforhodamine B assay relative to control; details: OVCAR-8, 48 h, read-out: Activity
[33] = test system: SK-MEL-2; test: Growth inhibition of human SK-MEL-2 cells assessed as cell growth at 10 uM incubated for 48 hrs by sulforhodamine B assay relative to control; details: SK-MEL-2, 48 h, read-out: Activity

SMILES	growth at 10 µM [1]	growth at 10 µM [2]	growth at 10 µM [3]	growth at 10 µM [4]	growth at 10 µM [5]	growth at 10 µM [6]	growth at 10 µM [7]	growth at 10 µM [8]	growth at 10 µM [9]	growth at 10 µM [10]	growth at 10 µM [11]	growth at 10 µM [12]	growth at 10 µM [13]	growth at 10 µM [14]	growth at 10 µM [15]	growth at 10 µM [16]	growth at 10 µM [17]	growth at 10 µM [18]	growth at 10 µM [19]	growth at 10 µM [20]	other results
O=C1NCC(c2cc3ccc4ccccc4c3[nH]c2=O)Nc2ccccc21 (stereo unspecified)	44.1%	107%	79.3%	82.3%	85.7%	97.8%	91.5%	90.4%	90.6%	109%	99.5%	99.1%	92.8%	108%	109%	93.1%	93.9%	77.8%	103%	102%	growth at 10 µM [21]: 101%; growth at 10 µM [22]: 81.5%; growth at 10 µM [23]: 77.3%; growth at 10 µM [24]: 101%; growth at 10 µM [25]: 95%; growth at 10 µM [26]: 99%; growth at 10 µM [27]: 102%; growth at 10 µM [28]: 99.2%; growth at 10 µM [29]: 93.1%; growth at 10 µM [30]: 88.6%; growth at 10 µM [31]: 111%; growth at 10 µM [32]: 78%; growth at 10 µM [33]: 92.2%
O=C1CC(c2cc3ccc4ccccc4c3[nH]c2=O)Nc2ccccc21 (stereo unspecified)	93%	102%	90.7%	81.1%	86%	108%	96%	89.2%	84%	99.7%	104%	94.5%	95.6%	86.7%	106%	69.4%	77.3%	96.8%	92.5%	87.6%	growth at 10 µM [21]: 110%; growth at 10 µM [22]: 101%; growth at 10 µM [23]: 84.3%; growth at 10 µM [24]: 114%; growth at 10 µM [25]: 99.1%; growth at 10 µM [26]: 108%; growth at 10 µM [27]: 93.6%; growth at 10 µM [28]: 98.9%; growth at 10 µM [29]: 91.1%; growth at 10 µM [30]: 115%; growth at 10 µM [31]: 108%; growth at 10 µM [32]: 110%; growth at 10 µM [33]: 96.2%
